What is called IC50 is the point on the concentration scale where inhibition reaches its midpoint.

For one test, the target named is NleB (Citrobacter rodentium, UniProt A0A482PDI9). Put plainly: biochemical.
Another test addresses SseK1 (Salmonella enterica, UniProt A0A0H3NK84). Put plainly: biochemical.

Chain of SseK1 (A0A0H3NK84 whole entry, looked up): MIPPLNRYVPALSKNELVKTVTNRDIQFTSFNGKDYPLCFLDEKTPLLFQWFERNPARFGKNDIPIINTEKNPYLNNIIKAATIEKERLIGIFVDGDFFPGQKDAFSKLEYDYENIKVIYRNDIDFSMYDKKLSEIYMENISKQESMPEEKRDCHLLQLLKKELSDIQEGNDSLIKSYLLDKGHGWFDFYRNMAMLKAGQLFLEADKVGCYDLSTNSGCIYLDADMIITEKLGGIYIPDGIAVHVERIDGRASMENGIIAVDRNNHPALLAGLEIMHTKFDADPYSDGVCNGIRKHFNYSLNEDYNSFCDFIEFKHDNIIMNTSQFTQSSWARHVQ
Chain of NleB (A0A482PDI9 whole entry, looked up): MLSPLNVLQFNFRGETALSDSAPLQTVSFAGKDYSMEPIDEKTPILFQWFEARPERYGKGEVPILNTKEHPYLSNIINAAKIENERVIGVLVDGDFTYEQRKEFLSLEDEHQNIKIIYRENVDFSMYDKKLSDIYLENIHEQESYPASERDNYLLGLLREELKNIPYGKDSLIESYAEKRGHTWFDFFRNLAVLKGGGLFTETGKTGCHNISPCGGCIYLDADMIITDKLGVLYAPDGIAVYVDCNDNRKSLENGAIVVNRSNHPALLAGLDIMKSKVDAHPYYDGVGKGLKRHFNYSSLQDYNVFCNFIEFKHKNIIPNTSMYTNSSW

Regarding `COCCn1c2c([n+](Cc3cnccn3)c1C)C(=O)c1ccccc1C2=O` [YM155], the IC50 against NleB and at SseK1 was about 2000 nM throughout.

The values are drawn from PMC7926936, “YM155 Inhibits NleB and SseK Arginine Glycosyltransferase Activity” (Pathogens, 2021).
